For series [1], the system named is TTR. Description: TTR editing in HEK293_Cas9 cells transfected with dgRNAs (Table 4). It counts as cell-based, human. The conditions noted are these: HEK293_Cas9 cells (constitutively express Spy Cas9) transfected with dgRNAs. The procedure, abridged: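 Spy Cas9-expressing HEK293 cells were transfected by lipofection with crRNA (25 nM) plus trRNA (25 nM) and harvested at 24, 48 or 72 h. The target site was PCR-amplified and sequenced on MiSeq. Percent editing is reads with indels or substitutions over total reads.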

The test system of series [2] is TTR. Kind of series: TTR editing in HUH7 cells transfected with Spy Cas9 mRNA and dgRNAs (Table 5). It counts as cell-based, human. The conditions noted are these: HUH7 cells co-transfected with Spy Cas9 mRNA (SEQ ID NO:2) and dgRNAs. The essentials: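 HUH7 cells were transfected sequentially with Spy Cas9 mRNA (100 ng) then crRNA and tracer RNA (25 nM each) by lipofection. Genomic DNA was collected 24, 48 or 72 h later. Target site was PCR-amplified and NGS-sequenced, and percent editing was taken as reads with indels or substitutions over total reads.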

The test system of series [3] is TTR. Description: TTR editing in primary human hepatocytes electroporated with Spy Cas9 protein loaded with dgRNAs (Table 7). Conditions: dgRNA electroporated with Spy Cas9 protein (RNP). It counts as cell-based. The essentials:
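Primary human or cynomolgus hepatocytes electroporated (Lonza P3 buffer, program EX-147) with Spy Cas9 RNP carrying pre-annealed crRNA/trRNA dual guides. Genomic DNA harvested at 24, 48 or 72 h; target amplicons sequenced by Illumina MiSeq. Percent editing = reads with indels or substitutions over total reads.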

Series [4] deals with TTR. Kind of series: TTR editing in primary human hepatocytes transfected with Spy Cas9 mRNA and dgRNAs (Table 9). The conditions noted are these: dgRNA co-transfected with Spy Cas9 mRNA (SEQ ID NO:2). The class given is cell-based. The essentials:
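PHH sequentially lipofected with Spy Cas9 mRNA (100 ng), then crRNA plus tracrRNA (25 nM each) dual-guide lipoplex. Cells harvested 24, 48 or 72 h post-transfection; TTR target amplicons sequenced on Illumina MiSeq, editing given as percent reads with indels or substitutions over total reads.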

On to “CUGCUCCUCCUCUGCCUUGC (tested as dual guide RNA, chemistry not given here) [CR003335]”, for which the “Avg % Deletion” value in the series with TTR [1] was found to be 21.87%; in the series on TTR [2] it was 27.57%; in the series on TTR [3] it was 2.50%; in the series with TTR [4] it was 3.40%. Further, the “Avg % Edit” value was 26.59% in the series with TTR [1], 31.95% in the series with TTR [2], 72.20% with TTR [3] and 36.43% in the series with TTR [4]. For the same sequence, the “Avg % Insert” value in the series on TTR [1] is listed as 4.73%; in the series with TTR [2], 4.62%; in the series with TTR [3], 69.70%; in the series on TTR [4], 33.03%.
“UGGACUGGUAUUUGUGUCUG (tested as dual guide RNA, chemistry not given here) [CR003340]”: the “Avg % Deletion” value amounted to 14.50% in the series with TTR [1], 14.23% in the series on TTR [2], 6.50% in the series on TTR [3] and 23.17% in the series on TTR [4]. The “Avg % Edit” value with TTR [1] is reported as 42.38%; in the series with TTR [2], 46.93%; in the series with TTR [3], 12.03%; in the series with TTR [4] it was 24.97%. Further, the “Avg % Insert” value is 27.88% with TTR [1], 33.33% in the series with TTR [2], 5.60% in the series with TTR [3] and 1.83% in the series on TTR [4].
Take “AGGCAGUCCUGCCAUCAAUG (tested as dual guide RNA, chemistry not given here) [CR003348]”: the “Avg % Deletion” value is reported as 13.21% in the series with TTR [1], 22.71% in the series on TTR [2], 17.27% in the series with TTR [3] and 15.80% in the series on TTR [4]. Further, the “Avg % Edit” value with TTR [1] was 35.53%; with TTR [2], 57.14%; in the series on TTR [3], 28.53%; in the series with TTR [4], 18.00%. For the same sequence, the “Avg % Insert” value amounted to 22.32% in the series on TTR [1], 36.08% in the series on TTR [2], 11.30% with TTR [3] and 2.30% in the series on TTR [4].
With “CCAGUCCAGCAAGGCAGAGG (tested as dual guide RNA, chemistry not given here) [CR003337]”, the “Avg % Deletion” value stood at 37.48% with TTR [1], 48.95% with TTR [2], 1.30% in the series on TTR [3] and 1.23% in the series with TTR [4]. In addition, the “Avg % Edit” value with TTR [1] amounted to 42.72%; with TTR [2] it was 55.72%; with TTR [3] it was 54.27%; in the series on TTR [4], 19.30%. Further, the “Avg % Insert” value in the series on TTR [1] amounted to 5.24%; in the series on TTR [2], 8.34%; with TTR [3], 53.23%; in the series with TTR [4], 18.10%.
“CCCAGAGGCAAAUGGCUCCC (tested as dual guide RNA, chemistry not given here) [CR003355]”: the “Avg % Deletion” value in the series on TTR [1] was determined as 23.61%; with TTR [2] it was 30.31%; in the series on TTR [3] it was 1.97%; in the series with TTR [4], 1.63%. Also, the “Avg % Edit” value with TTR [1] is reported as 30.60%; with TTR [2], 38.83%; in the series on TTR [3], 12.53%; with TTR [4], 12.07%. For the same sequence, the “Avg % Insert” value is 6.99% in the series on TTR [1], 9.40% with TTR [2], 10.60% in the series with TTR [3] and 10.47% in the series on TTR [4].

The values are drawn from US11795460B2, “Compositions and methods for TTR gene editing and treating ATTR amyloidosis” (Intellia Therapeutics, Inc., priority 2017, dated 2023).
